Measurements: patent publication EP4435060A1, “SILICON PHTHALOCYANINE AND TRIBENZOPHTHALOCYANINE DYES AND THEIR USE IN DIAGNOSIS AND THERAPY” (Albert-Ludwigs-Universität Freiburg, priority 2023, dated 2024)

Columns and labels:
[1] = UV/VIS absorption spectra; assay type: physicochemical; settings: for λmax (UV/VIS spectrum): in H2O, 5 - 16 µM (Figure 13) or 4 - 15 µM (Figure 14); for bathochromic shift compared to the absorption maximum of Li-Cor-A: versus λmax = 680 nm
prostate cancer cells = assay: PIT controls on the prostate cancer cell lines of Figure 16E (free dye; conjugate without irradiation); assay type: cell-based, human; settings: equimolar concentrations of free dye, 32 J/cm^2 red light, in words
Protocol: 2.5*10^5 cells were seeded per well in 35 mm cell culture dishes (Thermo Fischer Scientific) and cultivated for 24 h in the incubator (37°C, 5% CO2). On the next day, cell culture medium was removed and fresh medium containing the appropriate treatment (medium, 10 µg/ml antibody, 10 µg/ml conjugate or the equimolar amount of free dye) was administered to the cells. After incubation (37°C, 5% CO2, 24h), the cells were washed with 1x PBS and irradiated with a red light-emitting diode (LED), which emits light at λmax = 680 nm (L690-66-60, Marubeni, Tokyo, Japan) or a LED, which emits light at (λmax = 780 nm) (L780-66-60-550) at various mean irradiation doses. Power densities were quantified with an optical power meter (PM 100, Thorlabs, Newton, USA). After 24h, cell viability was analyzed using the vital dye erythrosine b (Logos Biosystems, Gyeonggi-do, South Korea) and the Neubauer Counting Chamber. Significance of the data was calculated with the Student's t test (unpaired, parametric with Welch's […]) using the GraphPad Prism 7 software (GraphPad Software Inc., San Diego, USA).

Substance | λalmost max (UV/VIS spectrum) ([1]; 4 - 15 µM in H2O, pathlength = 1 cm) [nm] | λmax (UV/VIS spectrum) ([1]; pathlength = 1 cm) [nm] | absorption maximum λmax in the UV/VIS spectrum [1] [nm] | bathochromic shift compared to the absorption maximum of Li-Cor-A [1] [nm] | viability of irradiated cells incubated with free dye (prostate cancer cells)
2-(4-Iodophenoxy)-29,31-bis[(3,4,5-tris{[1-(sodium 3-sulfonatopropyl)-1,2,3-triazol-4-yl]methoxy}phenyl)methoxy]silanediyl-29H,31H-silicon tribenzophthalocyanine [compound 31] | 765 | 795 |  |  | 
2-(4-[4-({[7-oxo-7-(perfluorophenoxy) heptyl]ca rbamoyl} oxy) but-1-yn-1-yl]phenoxy)-29,31-bis[(3,4,5-tris{[1-(sodium 3-sulfonatopropyl)-1,2,3-triazol-4-yl]methoxy}phenyl)methoxy]silanediyl-29H,31H-silicon phthalocyanine [WB692-LB2] |  |  | 692 | 12 | 
2-({[({4-[(2,5-Dihydro-1H-2,5-dioxopyrrol-1-yl)oxy]-4-oxobut-1-yl}amino)-carbonyloxy]but-1-ynyl}phenoxy)-29,31-bis[(3,4,5-tris{[1-(sodium 3-sulfonatopropyl)-1,2,3-tri-azol-4-yl]methoxy}phenyl)methoxy]silanediyl-29H,31H-silicon tribenzophthalocyanine [WB795-LB1] |  |  | 795 | 115 | 
2-({[({6-[(2,5-Dihydro-1H-2,5-dioxopyrrol-1-yl)oxy]-6-oxohex-1-yl}amino)-carbonyloxy]but-1-ynyl}phenoxy)-29,31-bis[(3,4,5-tris{[1-(sodium 3-sulfonatopropyl)-1,2,3-tri-azol-4-yl]methoxy}phenyl)methoxy]silanediyl-29H,31H-silicon phthalocyanine [WB692-LB1] |  |  | 692 | 12 | 
2-[({5-[(1H-2,5-Dioxopyrrol-1-yl)pent-1-yl]amino]carbonylamino)}but-1-yn-yl)phenoxy]-29,31-bis[(3,4,5-tris{[1-(sodium 3-sulfonatopropyl)-1,2,3-triazol-4-yl]methoxy}-phenyl)methoxy]silanediyl-29H,31H-silicon tribenzophthalocyanine [WB795-CB1] |  |  | 795 | 115 | 
2-[({5-[(1H-2,5-Dioxopyrrol-1-yl)pent-1-yl]amino]carbonylamino)}but-1-yn-yl)phenoxy]-29,31-bis[(3,4,5-tris{[1-(sodium 3-sulfonatopropyl)-1,2,3-triazol-4-yl]methoxy}-phenyl)methoxyjsilanediyl-29H,31H-silicon phthalocyanine [WB692-CB2] |  |  | 692 | 12 | 
2-[({5-[(1H-2,5-Dioxopyrrol-1-yl)pent-1-yl]amino]carbonyloxy)}but-1-yn-yl)phenoxy]-29,31-bis[(3,4,5-tris{[1-(sodium 3-sulfonatopropyl)-1,2,3-triazol-4-yl]methoxy}-phenyl)methoxyjsilanediyl-29H,31H-silicon phthalocyanine [WB692-CB1] |  | 692 | 692 | 12 | remained alive
